Among the data in BindingDB's records for doi:10.1128/aac.40.5.1304 (Merck Research Laboratories, 1996) are IC50 values, retold here.

SMILES strings stand for the structures.

The target of this assay is Polymerase acidic protein (Influenza A virus (strain A/Puerto Rico/8/1934 H1N1), UniProt P03433). In words: Inhibition of Influenza replication.

What is called IC50 is the point on the concentration scale where inhibition reaches its midpoint. Read a low IC50 as higher potency. Regarding `O=C(O)C(=O)CC(=O)C1(Cc2ccc(Cl)cc2)CCN(Cc2ccc(Cl)cc2)CC1`, the IC50 is 180 nM.

Compound `O=C(O)C(=O)CC(=O)C1(Cc2ccc(Cl)cc2)CCCN(Cc2ccccc2)C1` (configuration not stated) had an IC50 of 1600 nM.
